Measured values taken from article PMC13600255 (Journal of the American Chemical Society, 2025).
Where “and” joins values, the source holds several entries; their conditions need not be identical. Identical values can stand only once. Entries after “also recorded” stand apart in the source; their conditions may differ. Like-named read-outs stand apart in the source and are kept apart here.

Key:
[1] = Pharmacokinetics in mice, estimated free drug concentration in brain; assay type: in vivo, mouse
mice [2] = experiment: Loss of righting reflex; assay type: in vivo, mouse; conditions: high doses
SERT [3] = biological target: SERT (Mus musculus, UniProt Q60857); experiment: SERTlight two-photon imaging of SERT function in acute mouse brain slices; assay type: cell-based
[4] = system: other uptake 2 transporters (OCT1, OCT3, PMAT); experiment: Fluorescent substrate uptake inhibition at the other uptake 2 transporters; assay type: cell-based
hVMAT2 [5] = biological target: T1, hVMAT2 (Homo sapiens, UniProt Q05940); experiment: FFN206 fluorescent substrate uptake inhibition in hVMAT2-HEK cells; assay type: cell-based; conditions: read-out: IC50, hVMAT2 (uptake inhibition, FFN206); hVMAT2-HEK cells, fluorescent substrate FFN206, n = 4
mice [6] = experiment: Catalepsy bar test in mice; assay type: in vivo, mouse; conditions: mice, s.c.
SERT [7] = conditions: SERT-transfected cells; cited from earlier work
rVMAT2 = rVMAT2 (Rattus norvegicus, UniProt Q01827); experiment: [3H]DTBZ binding competition in rat brain synaptic vesicles
rat SERT (rSERT) [8] = biological target: T2, rat SERT (rSERT) (Rattus norvegicus, UniProt P31652); conditions: read-out: IC50, rSERT reported previously in rat synaptosomes; cited from earlier work
hOCT2 = biological target: T3, hOCT2 (Homo sapiens, UniProt O15244); experiment: ASP+ fluorescent substrate uptake inhibition at OCT2; assay type: cell-based; conditions: read-out: IC50, hOCT2; ASP+ fluorescent substrate
T3 sequence (O15244 1-555): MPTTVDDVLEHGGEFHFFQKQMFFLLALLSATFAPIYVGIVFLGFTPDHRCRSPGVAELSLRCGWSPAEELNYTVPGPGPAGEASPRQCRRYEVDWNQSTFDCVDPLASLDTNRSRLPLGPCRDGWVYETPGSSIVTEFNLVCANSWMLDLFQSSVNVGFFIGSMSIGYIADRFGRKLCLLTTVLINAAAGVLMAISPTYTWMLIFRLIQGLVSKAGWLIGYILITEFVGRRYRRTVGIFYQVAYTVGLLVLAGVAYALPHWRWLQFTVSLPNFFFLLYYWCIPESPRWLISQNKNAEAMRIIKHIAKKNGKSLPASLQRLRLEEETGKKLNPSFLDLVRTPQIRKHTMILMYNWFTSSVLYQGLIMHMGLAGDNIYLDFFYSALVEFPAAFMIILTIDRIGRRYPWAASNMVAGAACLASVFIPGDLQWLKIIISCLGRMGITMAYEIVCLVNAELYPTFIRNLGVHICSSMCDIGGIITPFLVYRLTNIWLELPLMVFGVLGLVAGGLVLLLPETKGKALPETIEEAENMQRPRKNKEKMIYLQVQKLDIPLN

Lipophilicity = assay type: physicochemical; conditions: noribogaine versus ibogamine
SERT [9] = biological target: SERT (Rattus norvegicus, UniProt P31652); experiment: [3H]5-HT release from rat brain synaptosomes via SERT; assay type: biochemical; conditions: rat brain synaptosomes
rat VMAT2 (rVMAT2) = rat VMAT2 (rVMAT2) (Rattus norvegicus, UniProt Q01827); experiment: [3H]5-HT uptake inhibition in rat brain synaptic vesicular fraction; assay type: biochemical; conditions: read-out: Uptake Inhibition at VMAT2 IC50, [3H]5-HT (rVMAT2); rat brain synaptic vesicles
hDAT = hDAT (Homo sapiens, UniProt Q01959); experiment: APP+ fluorescent substrate uptake inhibition in hDAT-HEK cells; assay type: cell-based; conditions: read-out: IC50, hDAT
mouse VMAT2 (mVMAT2) = mouse VMAT2 (mVMAT2) (Mus musculus, UniProt Q8BRU6); experiment: FFN200 two-photon imaging of VMAT2 function in acute mouse brain slices; assay type: cell-based
hVMAT2 [10] = biological target: T1, hVMAT2; conditions: read-out: IC50, VMAT2 binding, cortex; human brain cortex; cited from earlier work
VMAT2 = VMAT2 (Rattus norvegicus, UniProt Q01827); experiment: [3H]5-HT release from rat brain synaptic vesicles via VMAT2; assay type: biochemical
humans = conditions: top dose of 180 mg, p.o.; cited from earlier work
rat SERT (rSERT) [11] = biological target: T2, rat SERT (rSERT); experiment: [3H]5-HT uptake inhibition in rat brain synaptosomes; assay type: biochemical; conditions: rat brain synaptosomes
mice [12] = experiment: Open field locomotor activity test in mice; assay type: in vivo, mouse; conditions: s.c.

Sequence of SERT (Mus musculus, UniProt Q60857) (Q60857 whole entry): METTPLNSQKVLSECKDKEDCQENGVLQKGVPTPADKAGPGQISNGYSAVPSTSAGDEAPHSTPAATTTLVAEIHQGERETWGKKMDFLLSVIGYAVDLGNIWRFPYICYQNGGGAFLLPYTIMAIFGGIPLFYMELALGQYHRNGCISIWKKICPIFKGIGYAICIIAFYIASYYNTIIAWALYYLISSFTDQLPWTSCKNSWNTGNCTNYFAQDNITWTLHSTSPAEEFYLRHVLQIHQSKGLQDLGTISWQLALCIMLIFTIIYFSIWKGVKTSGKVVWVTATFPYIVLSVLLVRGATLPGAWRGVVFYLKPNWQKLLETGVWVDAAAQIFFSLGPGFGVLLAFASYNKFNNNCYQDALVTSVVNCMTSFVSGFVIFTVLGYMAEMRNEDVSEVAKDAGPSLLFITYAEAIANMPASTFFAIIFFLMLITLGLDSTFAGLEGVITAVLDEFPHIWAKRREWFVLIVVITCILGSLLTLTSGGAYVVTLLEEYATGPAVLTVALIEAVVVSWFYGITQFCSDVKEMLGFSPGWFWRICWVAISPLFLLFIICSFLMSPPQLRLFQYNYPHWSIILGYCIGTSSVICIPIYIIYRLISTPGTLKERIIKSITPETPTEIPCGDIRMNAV
Sequence of mouse VMAT2 (mVMAT2) (Q8BRU6 whole entry): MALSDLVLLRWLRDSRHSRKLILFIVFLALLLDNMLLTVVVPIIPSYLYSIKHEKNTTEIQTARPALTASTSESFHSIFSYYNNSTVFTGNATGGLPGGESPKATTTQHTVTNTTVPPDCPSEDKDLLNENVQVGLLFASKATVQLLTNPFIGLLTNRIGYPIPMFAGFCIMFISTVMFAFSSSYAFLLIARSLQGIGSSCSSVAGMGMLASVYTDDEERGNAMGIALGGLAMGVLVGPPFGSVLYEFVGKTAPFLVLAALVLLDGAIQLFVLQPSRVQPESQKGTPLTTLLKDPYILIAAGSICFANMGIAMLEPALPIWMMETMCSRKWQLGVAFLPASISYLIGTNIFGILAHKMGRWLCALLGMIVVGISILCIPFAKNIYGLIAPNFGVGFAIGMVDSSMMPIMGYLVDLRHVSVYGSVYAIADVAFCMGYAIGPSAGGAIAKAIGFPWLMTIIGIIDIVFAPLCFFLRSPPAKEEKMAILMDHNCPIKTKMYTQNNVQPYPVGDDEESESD
Sequence of SERT (Rattus norvegicus, UniProt P31652) (P31652 whole entry): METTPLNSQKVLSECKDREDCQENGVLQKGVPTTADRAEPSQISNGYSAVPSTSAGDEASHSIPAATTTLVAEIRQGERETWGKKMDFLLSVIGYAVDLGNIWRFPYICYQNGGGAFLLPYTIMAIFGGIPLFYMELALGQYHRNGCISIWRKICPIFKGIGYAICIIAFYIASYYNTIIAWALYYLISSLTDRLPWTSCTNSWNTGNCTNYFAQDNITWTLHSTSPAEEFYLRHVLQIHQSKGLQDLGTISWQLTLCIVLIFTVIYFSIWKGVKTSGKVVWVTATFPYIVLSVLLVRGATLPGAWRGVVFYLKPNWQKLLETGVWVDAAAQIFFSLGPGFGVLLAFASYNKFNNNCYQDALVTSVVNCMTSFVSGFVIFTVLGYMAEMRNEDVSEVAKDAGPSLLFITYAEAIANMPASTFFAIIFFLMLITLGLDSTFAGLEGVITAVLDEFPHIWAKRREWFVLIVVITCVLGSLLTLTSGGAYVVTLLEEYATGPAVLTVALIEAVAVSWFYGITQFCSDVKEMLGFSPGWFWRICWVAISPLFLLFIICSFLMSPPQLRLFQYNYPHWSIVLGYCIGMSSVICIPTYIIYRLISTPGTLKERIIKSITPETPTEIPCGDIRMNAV
T2 sequence (P31652 whole entry): as above
Sequence of rVMAT2 (Q01827 whole entry): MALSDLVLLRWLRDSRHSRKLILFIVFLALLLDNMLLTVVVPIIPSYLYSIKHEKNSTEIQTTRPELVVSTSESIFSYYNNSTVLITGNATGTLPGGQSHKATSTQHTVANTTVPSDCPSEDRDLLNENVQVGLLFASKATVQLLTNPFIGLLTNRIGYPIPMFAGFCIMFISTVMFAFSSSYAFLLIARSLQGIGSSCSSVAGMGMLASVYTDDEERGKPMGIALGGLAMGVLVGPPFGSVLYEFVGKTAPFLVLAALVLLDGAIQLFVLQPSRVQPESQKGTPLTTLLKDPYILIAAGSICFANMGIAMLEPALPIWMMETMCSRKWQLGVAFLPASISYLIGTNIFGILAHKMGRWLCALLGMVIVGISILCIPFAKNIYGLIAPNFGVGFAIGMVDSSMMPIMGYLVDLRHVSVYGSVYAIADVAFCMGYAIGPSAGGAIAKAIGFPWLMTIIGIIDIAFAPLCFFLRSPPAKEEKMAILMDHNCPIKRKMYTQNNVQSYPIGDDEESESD
Sequence of VMAT2 (Q01827 whole entry): as above
T1 sequence (Q05940 whole entry): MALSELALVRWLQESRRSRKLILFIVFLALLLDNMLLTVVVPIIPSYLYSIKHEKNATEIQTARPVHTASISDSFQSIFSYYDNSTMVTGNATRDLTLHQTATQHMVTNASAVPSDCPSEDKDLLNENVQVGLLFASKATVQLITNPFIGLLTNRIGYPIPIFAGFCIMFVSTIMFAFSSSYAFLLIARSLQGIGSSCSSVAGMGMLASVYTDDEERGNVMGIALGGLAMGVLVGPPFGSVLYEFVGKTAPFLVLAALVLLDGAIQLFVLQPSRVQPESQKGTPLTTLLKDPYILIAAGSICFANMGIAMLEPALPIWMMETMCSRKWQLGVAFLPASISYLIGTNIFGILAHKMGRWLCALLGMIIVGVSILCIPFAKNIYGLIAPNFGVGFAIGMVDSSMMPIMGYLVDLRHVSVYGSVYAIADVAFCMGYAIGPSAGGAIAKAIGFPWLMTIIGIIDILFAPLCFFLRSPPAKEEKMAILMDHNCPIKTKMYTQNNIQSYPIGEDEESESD
Sequence of rat VMAT2 (rVMAT2) (Q01827 whole entry): as the sequence (Q01827 whole entry) above
Sequence of hDAT (Q01959 whole entry): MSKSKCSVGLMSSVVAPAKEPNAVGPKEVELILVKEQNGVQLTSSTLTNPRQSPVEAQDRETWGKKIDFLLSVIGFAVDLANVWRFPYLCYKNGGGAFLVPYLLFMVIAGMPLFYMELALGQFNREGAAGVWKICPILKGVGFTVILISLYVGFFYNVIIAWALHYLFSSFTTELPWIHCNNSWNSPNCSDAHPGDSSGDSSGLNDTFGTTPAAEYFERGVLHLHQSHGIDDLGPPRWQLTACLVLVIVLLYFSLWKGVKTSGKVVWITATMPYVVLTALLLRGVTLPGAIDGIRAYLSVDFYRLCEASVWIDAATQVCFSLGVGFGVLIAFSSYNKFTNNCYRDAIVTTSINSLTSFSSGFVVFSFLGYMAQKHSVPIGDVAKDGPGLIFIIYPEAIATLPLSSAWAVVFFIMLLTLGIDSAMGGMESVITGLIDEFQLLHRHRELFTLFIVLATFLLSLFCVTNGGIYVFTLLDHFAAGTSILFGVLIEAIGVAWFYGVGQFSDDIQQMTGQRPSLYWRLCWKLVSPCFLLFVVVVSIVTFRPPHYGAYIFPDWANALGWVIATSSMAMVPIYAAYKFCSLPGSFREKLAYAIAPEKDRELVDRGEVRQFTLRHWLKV

## CC[C@H]1C[C@H]2C[C@H]3c4[nH]c5ccc(O)cc5c4CCN(C2)[C@@H]13 [noribogaine]
[1]; mice, 10 mg/kg, s.c.
  Cmax, estimated free brain concentration: ~ 6.6 μM
[1]; mice, 50 mg/kg, s.c.
  Cmax, estimated free drug in the brain: 31 µM and > 20 µM
[1]; rodents (rats ref 11 and mice, Figure S11)
  Concentration of free drug in the brain over plasma: > 4 fold
Mice [2]
  Loss of righting reflex (LORR): did not observe a loss of righting reflex
SERT [3]; 2 μM
  Effect on somatodendritic SERTlight labeling in dorsal raphe: showed no effect
SERT [3]; 2 μM for 30 minutes, SERTlight 10 μM, SNpr, DS, SSp2/3
  Effect on SERTlight labeling of 5-HT axons: ablated SERTlight probe uptake; also recorded: completely blocked the SERTlight signal; also recorded: completely inhibited the axonal SERT
SERT [3]; 10 μM
  Effect on somatodendritic SERTlight labeling in dorsal raphe: showed no effect
SERT [3]; 30 μM
  Effect on somatodendritic SERTlight labeling in dorsal raphe: no apparent effect
SERT [3]; 100 μM
  Effect on somatodendritic SERTlight labeling in dorsal raphe: clear inhibition
SERT [3]; 10, 30, 50, and 100 μM
  Inhibitory potency on SERTlight staining in dorsal raphe, dose-response: weak inhibitory potency
[4]
  Inhibition at the other uptake 2 transporters examined: no inhibition below 10 μM
hVMAT2 [5]
  IC50: 570 nM
Mice [6]; high doses 30, 50 and 80 mg/kg
  Catalepsy in bar test: did not induce catalepsy; also recorded: did not show any catalepsy
Mice [6]; dose-response
  Catalepsy in bar test: does not result in catalepsy
SERT [7]
  Partial [3H]5-HT release Emax: ~ 30%
rVMAT2
  [3H]DTBZ displacement: < 20%
rVMAT2; read-out: IC50, rVMAT2 ([3H]DTBZ competition)
  IC50: > 10000 nM
Rat SERT (rSERT) [8]
  IC50: 330 nM
hOCT2
  IC50: 6180 nM
Lipophilicity
  Less lipophilic than ibogamine by: 1.75 log D units
SERT [9]
  [3H]5-HT release from preloaded synaptosomes (qualitative): No [^3H]5-HT release was observed
SERT [9]; n = 3
  [3H]5-HT Release % Emax via SERT: < 30%
SERT [9]; n = 3, active releaser: EC50 < 10 μM and Emax > 30%
  [3H]5-HT Release EC50 ± SD via SERT: inactive
Rat VMAT2 (rVMAT2)
  IC50: 1310 nM
hDAT
  IC50: 6760 nM
Mouse VMAT2 (mVMAT2); 2 μM for 30 minutes, FFN200 10 μM, dorsal striatum
  Effect on FFN200 uptake / punctate labeling: strong inhibitory effects; also recorded: completely inhibited FFN200 uptake
Mouse VMAT2 (mVMAT2); read-out: IC50 FFN200 uptake in acute mouse slices, number of puncta per image, dose-response
  IC50: 160 nM
hVMAT2 [10]
  IC50: 5000 nM
VMAT2; rat brain vesicular fraction, 5-HT control set as Emax = 100%
  [3H]5-HT Release % Emax via VMAT2: 50%
VMAT2; read-out: [3H]5-HT Release EC50 ± SD via VMAT2
  EC50: 6480 nM
humans
  Dose-limiting cardiac effect: cardiac QT interval prolongation
Rat SERT (rSERT) [11]; read-out: Uptake Inhibition at SERT IC50, [3H]5-HT (rSERT)
  IC50: 326 nM
Rat SERT (rSERT) [11]; read-out: [3H]5-HT Uptake Inhibition IC50 ± SD, SERT, n = 3
  IC50: 326 ± 47.6 nM
Mice [12]; 30 mg/kg
  Locomotion in open field test: strongly suppressed
Mice [12]; dose-response
  Locomotor activity / sedation in open field test: diminished ambulatory behavior
